Experimental data: patent US11548860B2, “Pharmacophores, compounds and methods having application in the treatment of cancer through inhibition of CYP17A1 and CYP19A1” (MANGOSUTHU UNIVERSITY OF TECHNOLOGY, priority 2015, dated 2023)

What was measured:
CYP3A4 = CYP3A4 (Homo sapiens (Human), UniProt P08684); assay: CYP inhibition against major 5 human liver CYPs in E. coli CYPEX membranes: CYP3A4 (midazolam); type: in vitro ADME; conditions: bactosome mix, 10 min, 37° C.
Method: (§1) Test compounds and control inhibitors were prepared as stocks in DMSO from the solid compound. The stocks were diluted in 0.1 M phosphate buffer (pH 7.4) at four times the final concentration prior to addition into the incubation tubes. The final DMSO concentration was 1%. […] Catalogue number CYP/XG001, Batch XG001001). Selective and FDA accepted substrates for each isoform were used at a concentration around the Km for each substrate. Activity of each isoform was assessed by measuring the appearance of an isoform-specific metabolite. A cocktail of 5 isoform-specific inhibitors was used as a positive control. […] Reactions were stopped by addition of 100 μl MeOH/1 μM Tolbutamide (internal standard). The quenched samples were mixed thoroughly and protein precipitated at −20° C. overnight. Samples were centrifuged at 2,500×g (3,400 rpm) for 20 minutes, 4° C. The supernatants were transferred to a 96 well-plate and analysed by LC-MS/MS. […] The LC-MS/MS peak responses (CYP metabolite peak area/internal standard peak area) for each test compound or positive control inhibitor were used and the response for each sample was expressed as a percentage of an uninhibited control (DMSO incubation).

CYP1A2 = CYP1A2 (Homo sapiens (Human), UniProt P05177); assay: CYP inhibition against major 5 human liver CYPs in E. coli CYPEX membranes: CYP1A2 (tacrine); type: in vitro ADME; conditions: bactosome mix, 10 min, 37° C.
CYP1A2, sequence (P05177 whole entry): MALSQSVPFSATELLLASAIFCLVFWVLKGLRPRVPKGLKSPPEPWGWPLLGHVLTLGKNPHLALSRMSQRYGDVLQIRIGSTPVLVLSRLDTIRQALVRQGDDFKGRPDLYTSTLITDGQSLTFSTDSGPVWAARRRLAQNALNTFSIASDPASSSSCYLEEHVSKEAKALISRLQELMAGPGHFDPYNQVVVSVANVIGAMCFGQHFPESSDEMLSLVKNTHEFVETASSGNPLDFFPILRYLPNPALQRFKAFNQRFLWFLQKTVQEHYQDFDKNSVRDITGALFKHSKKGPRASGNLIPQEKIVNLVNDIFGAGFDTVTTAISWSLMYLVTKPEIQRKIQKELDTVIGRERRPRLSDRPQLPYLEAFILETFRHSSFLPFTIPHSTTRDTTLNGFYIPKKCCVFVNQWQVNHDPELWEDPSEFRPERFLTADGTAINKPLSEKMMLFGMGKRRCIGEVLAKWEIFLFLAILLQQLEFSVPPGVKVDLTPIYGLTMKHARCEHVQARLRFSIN
Method: as §1

Solubility in DMSO = type: physicochemical
CYP17A1 = CYP17A1 (Homo sapiens (Human), UniProt P05093); assay: CYP17A1 inhibition, CYP17A1 bactosomes, progesterone substrate, LC-MS/MS; type: biochemical; conditions: for IC50: 0.1 μM progesterone, 20 min, 37° C.; for inhibitory potency of CYP17A1, level in words: Table 2
CYP17A1, sequence (P05093 whole entry): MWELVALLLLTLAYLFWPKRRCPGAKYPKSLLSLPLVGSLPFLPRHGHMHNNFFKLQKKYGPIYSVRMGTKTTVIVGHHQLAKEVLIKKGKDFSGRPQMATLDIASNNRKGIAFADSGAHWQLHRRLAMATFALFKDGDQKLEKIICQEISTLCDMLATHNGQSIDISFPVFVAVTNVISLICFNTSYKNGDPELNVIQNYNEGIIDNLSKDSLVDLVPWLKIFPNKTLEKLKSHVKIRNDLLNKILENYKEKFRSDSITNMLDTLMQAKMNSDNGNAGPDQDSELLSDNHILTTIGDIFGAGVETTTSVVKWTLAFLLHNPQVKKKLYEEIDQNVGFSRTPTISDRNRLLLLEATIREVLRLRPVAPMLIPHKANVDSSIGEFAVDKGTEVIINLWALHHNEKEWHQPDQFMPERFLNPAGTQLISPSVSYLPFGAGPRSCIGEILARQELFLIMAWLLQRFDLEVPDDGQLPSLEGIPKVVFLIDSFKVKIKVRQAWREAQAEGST
Method: CYP17A1 inhibition was measured using 20 pmol/ml CYP17A1 bactosomes (Cypex, Dundee, UK) and 0.1 μM progesterone as a substrate and 1 mM NADPH in 50 mM potassium phosphate buffer pH 7.4 containing 5 mM magnesium chloride. Inhibitors were dissolved in DMSO and serially diluted in seven ½ log steps, final concentrations ranging from 50 μA to 50 nM. Reaction volume was 100 μl and final DMSO concentration was 1% (v/v). Reactions were started by the addition of NADPH and incubated at 37° C. for 20 minutes with shaking at 1800 rpm on a Bioshake IQ (Q-Instruments, Jena, Germany). Reactions were terminated by the addition of 200 μl methanol containing 1 μM tolbutamide as an internal standard.

CYP2D6 = CYP2D6 (Homo sapiens (Human), UniProt P10635); assay: CYP inhibition against major 5 human liver CYPs in E. coli CYPEX membranes: CYP2D6 (bufuralol); type: in vitro ADME; conditions: bactosome mix, 10 min, 37° C.
CYP2D6, sequence (P10635 whole entry, canonical isoform): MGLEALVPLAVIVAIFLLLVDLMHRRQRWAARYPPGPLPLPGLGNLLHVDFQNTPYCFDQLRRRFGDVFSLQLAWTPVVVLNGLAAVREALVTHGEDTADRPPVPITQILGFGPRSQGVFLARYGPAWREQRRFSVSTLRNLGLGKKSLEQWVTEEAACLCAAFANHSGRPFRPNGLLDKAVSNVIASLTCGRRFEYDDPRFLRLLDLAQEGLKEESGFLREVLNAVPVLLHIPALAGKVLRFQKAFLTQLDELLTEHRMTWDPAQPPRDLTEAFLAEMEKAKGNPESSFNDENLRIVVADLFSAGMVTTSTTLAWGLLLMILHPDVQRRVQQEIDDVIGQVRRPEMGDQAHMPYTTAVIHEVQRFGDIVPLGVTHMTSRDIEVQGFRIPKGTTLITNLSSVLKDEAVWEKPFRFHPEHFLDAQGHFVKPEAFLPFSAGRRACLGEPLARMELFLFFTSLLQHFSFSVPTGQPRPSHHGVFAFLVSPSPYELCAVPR
Method: Test compounds and control inhibitors were prepared as stocks in DMSO from the solid compound. The stocks were diluted in 0.1 M phosphate buffer (pH 7.4) at four times the final concentration prior to addition into the incubation tubes. The final DMSO concentration was 1%. […] Catalogue number CYP/XG001, Batch XG001001). Selective and FDA accepted substrates for each isoform were used at a concentration around the Km for each substrate. Activity of each isoform was assessed by measuring the appearance of an isoform-specific metabolite. A cocktail of 5 isoform-specific inhibitors was used as a positive control. […] Reactions were stopped by addition of 100 μl MeOH/1 μM Tolbutamide (internal standard). The quenched samples were mixed thoroughly and protein precipitated at −20° C. overnight. Samples were centrifuged at 2,500×g (3,400 rpm) for 20 minutes, 4° C. The supernatants were transferred to a 96 well-plate and analysed by LC-MS/MS. The following LC-MS/MS conditions were used to analyse the 5CYP inhibition samples: • Column: Waters ACE Excel C18-AR, 50×2.1 mm, 2 μm • Mobile phase A: MilliQ water+0.1% formic acid • Mobile phase B: Methanol+0.1% formic acid • Flow rate: 0.8 ml/min The CYP activities for each test compound/positive control inhibitor at each concentration were converted to % of control activity (CA). The LC-MS/MS peak responses (CYP metabolite peak area/internal standard peak area) for each test compound or positive control inhibitor were used and the response for each sample was expressed as a percentage of an uninhibited control (DMSO incubation).

CYP2C19 = CYP2C19 (Homo sapiens (Human), UniProt P33261); assay: CYP inhibition against major 5 human liver CYPs in E. coli CYPEX membranes: CYP2C19 ((S)-mephenytoin); type: in vitro ADME; conditions: bactosome mix, 10 min, 37° C.
CYP2C19, sequence (P33261 whole entry): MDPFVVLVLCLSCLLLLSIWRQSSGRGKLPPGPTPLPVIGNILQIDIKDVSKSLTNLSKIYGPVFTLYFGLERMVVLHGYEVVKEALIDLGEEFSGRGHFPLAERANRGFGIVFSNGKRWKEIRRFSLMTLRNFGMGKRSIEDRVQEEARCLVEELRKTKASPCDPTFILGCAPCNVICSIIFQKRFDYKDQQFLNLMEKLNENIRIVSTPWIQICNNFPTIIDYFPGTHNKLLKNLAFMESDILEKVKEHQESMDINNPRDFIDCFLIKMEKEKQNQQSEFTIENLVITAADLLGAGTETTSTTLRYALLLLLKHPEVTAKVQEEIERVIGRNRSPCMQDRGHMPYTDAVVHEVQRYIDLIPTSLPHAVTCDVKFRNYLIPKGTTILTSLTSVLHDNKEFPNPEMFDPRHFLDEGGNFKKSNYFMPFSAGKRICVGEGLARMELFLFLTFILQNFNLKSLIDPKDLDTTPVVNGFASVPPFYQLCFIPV
Method: as §1

[1] = Toxicity studies on the molecules in Table 2
CYP2C9 = CYP2C9 (Homo sapiens (Human), UniProt P11712); assay: CYP inhibition against major 5 human liver CYPs in E. coli CYPEX membranes: CYP2C9 (diclofenac); type: in vitro ADME; conditions: bactosome mix, 10 min, 37° C.
CYP2C9, sequence (P11712 whole entry, canonical isoform): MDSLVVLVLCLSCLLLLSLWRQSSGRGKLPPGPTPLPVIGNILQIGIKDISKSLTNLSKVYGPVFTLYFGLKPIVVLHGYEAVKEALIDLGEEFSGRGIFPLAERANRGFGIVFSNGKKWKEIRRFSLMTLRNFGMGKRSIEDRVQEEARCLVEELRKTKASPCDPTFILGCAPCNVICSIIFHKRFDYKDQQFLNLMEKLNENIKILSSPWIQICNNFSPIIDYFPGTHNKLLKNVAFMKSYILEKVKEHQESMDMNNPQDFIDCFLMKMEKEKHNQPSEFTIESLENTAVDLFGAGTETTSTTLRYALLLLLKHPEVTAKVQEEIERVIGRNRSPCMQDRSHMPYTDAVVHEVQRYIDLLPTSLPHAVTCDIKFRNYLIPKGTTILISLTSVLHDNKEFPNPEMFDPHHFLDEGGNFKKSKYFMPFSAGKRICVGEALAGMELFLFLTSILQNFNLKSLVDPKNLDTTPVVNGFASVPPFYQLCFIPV

[2] = tested on: CYP1A2, CYP2C9, CYP2C19, CYP2D6, and CYP3A4; assay: Summary of inhibition of metabolic CYP450 isoforms (5 CYP panel); type: in vitro ADME, human; conditions: Table 2
CYP19A1 = CYP19A1 (Homo sapiens (Human), UniProt P11511); assay: CYP19A1 inhibition, CYP19/MFC High Throughput Inhibitor Screen Kit, fluorescence; type: biochemical; conditions: for IC50 values against CYP19A1, potency level in words: Table 2
CYP19A1, sequence (P11511 whole entry): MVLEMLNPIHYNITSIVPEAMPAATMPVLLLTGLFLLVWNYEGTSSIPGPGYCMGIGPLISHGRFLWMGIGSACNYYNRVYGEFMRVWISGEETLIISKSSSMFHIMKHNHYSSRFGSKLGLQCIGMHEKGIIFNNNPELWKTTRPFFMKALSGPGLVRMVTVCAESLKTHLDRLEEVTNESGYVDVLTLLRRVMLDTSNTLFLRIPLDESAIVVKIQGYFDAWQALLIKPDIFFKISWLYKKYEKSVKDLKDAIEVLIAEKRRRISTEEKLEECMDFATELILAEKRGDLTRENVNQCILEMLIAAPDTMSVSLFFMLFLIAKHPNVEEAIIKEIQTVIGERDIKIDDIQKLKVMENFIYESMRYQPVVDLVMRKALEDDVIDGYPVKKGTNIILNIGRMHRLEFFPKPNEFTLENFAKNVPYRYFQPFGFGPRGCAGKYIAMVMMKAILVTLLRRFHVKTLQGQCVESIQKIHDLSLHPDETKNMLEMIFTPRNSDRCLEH
Method: Test compounds and control inhibitors were prepared as stocks in either Acetonitrile or DMSO from the solid compound. Compounds were serially diluted in ½ log steps in the same solvent. CYP19A1 inhibition experiments were performed using the CYP19/MFC High Throughput Inhibitor Screen Kit (Corning). Test compounds were tested in seven concentrations: […] CYP19A1 reactions were performed in black 96 well-plates (Greiner) according to the manufacturer's instructions. […] Final organic solvent concentrations were either 4% (v/v) acetonitrile or 0.5% (v/v) Dimethyl sulfoxide. The plates were covered with self-adhesive film lids and incubated for 10 minutes at 37° C. Reactions were terminated by the addition of 75 μl Stop Solution (100 mM Tris base in acetonitrile: MilliQ water (80:20). […] The CYP activities for each test compound/positive control inhibitor at each concentration were converted to % of control activity (CA). The LC-MS/MS peak responses (CYP metabolite peak area/internal standard peak area) for each test compound or positive control inhibitor were used and the response for each sample was expressed as a percentage of an uninhibited control (DMSO incubation).

CYP17A1 and CYP19A1 = assay: Classification as Dual Inhibitor (inhibitor of both CYP17A1 and CYP19A1); conditions: inhibitors of both CYP17A1 and CYP19A1

CYP3A4, sequence (P08684 whole entry, canonical isoform): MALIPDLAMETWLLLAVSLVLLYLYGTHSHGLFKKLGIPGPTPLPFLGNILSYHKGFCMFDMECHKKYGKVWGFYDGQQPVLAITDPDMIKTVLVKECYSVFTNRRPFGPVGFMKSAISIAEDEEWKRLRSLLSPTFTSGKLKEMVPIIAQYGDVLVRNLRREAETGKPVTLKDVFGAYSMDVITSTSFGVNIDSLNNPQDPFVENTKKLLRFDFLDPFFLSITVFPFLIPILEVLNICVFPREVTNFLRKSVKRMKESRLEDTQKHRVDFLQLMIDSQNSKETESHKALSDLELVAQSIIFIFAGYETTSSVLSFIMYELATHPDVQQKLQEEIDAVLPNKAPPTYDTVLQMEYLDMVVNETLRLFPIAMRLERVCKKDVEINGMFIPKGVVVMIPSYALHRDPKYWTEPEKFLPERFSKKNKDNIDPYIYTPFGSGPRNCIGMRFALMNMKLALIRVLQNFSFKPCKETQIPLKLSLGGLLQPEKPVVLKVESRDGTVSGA

SMILES | IC50 (CYP3A4) | IC50 (CYP1A2) | Soluble in DMSO (Solubility in DMSO) | IC50 (CYP17A1) | inhibitory potency of CYP17A1, level in words (CYP17A1) | IC50 (CYP2D6) | IC50 (CYP2C19) | safety profile [1] | IC50 (CYP2C9) | inhibition of various CYP450 isoforms (drug-drug interaction) [2] | IC50 values against CYP19A1, potency level in words (CYP19A1) | Dual Inhibitor classification (CYP17A1 and CYP19A1) | IC50 (CYP19A1; 25 μM MFC, 10 min, 37° C.)
CCCC(=O)Nc1ccc(C(=O)C(C)OC(=O)c2n[nH]c3ccccc23)cc1 (racemic) [Compound 6, 1-(4-butanamidophenyl)-1-oxopropan-2-yl-1H-indazole-3-carboxylate] | > 50 µM | > 50 µM | Yes | > 50 µM | micromolar levels | > 50 µM | 41.2 µM | excellent safety profiles | 2.5 µM | – | – | – | –
CCc1ccc(NC(=O)c2cc(C(=O)c3cc(OC)ccc3O)coc2=N)cc1 [Compound 1, N-(4-ethylphenyl)-5-(2-hydroxy-5-methoxybenzoyl)-2-imino-2H-pyran-3-carboxamide] | – | – | Yes | – | micromolar levels | – | – | reasonably good safety profiles | – | inhibit various CYP450 isoforms | – | – | –
O=C(CSc1nnc(-c2c[nH]c3ccccc23)n1Cc1ccco1)NCc1ccccc1Cl [Compound 2, N-[(2-chlorophenyl)methyl]-2-({4-[(furan-2-yl)methyl]-5-(1H-indol-3-yl)-4H-1,2,4-triazol-3-yl}sulfanyl)acetamide] | – | – | Yes | – | micromolar levels | – | – | reasonably good safety profiles | – | inhibit various CYP450 isoforms | – | – | –
Cc1cccc(C(=O)OCCOc2ccc(S(N)(=O)=O)cc2)c1N [Compound 4, 2-(4-sulfamoylphenoxy) ethyl 2-amino-3-methylbenzoate] | – | – | Yes | – | – | 3.3 µM | – | reasonably good safety profiles | – | inhibit various CYP450 isoforms | – | – | –
O=C1COc2cc(NCc3cccc(NC(=O)c4ccccc4Cl)c3)c(Cl)cc2N1 [Compound 7, 2-chloro-N-(3-{[(6-chloro-3-oxo-3,4-dihydro-2H-1,4-benzoxazin-7-yl)amino]methyl}phenyl)benzamide] | – | – | Yes | – | micromolar levels | – | – | excellent safety profiles | – | – | sub-micromolar inhibitory potency levels | Dual Inhibitors | –
O=C1COc2cc(NCc3cccc(C(=O)Nc4cccnc4)c3)c(O)cc2N1 [Compound 8, 3-{[(6-hydroxy-3-oxo-3,4-dihydro-2H-1,4-benzoxazin-7-yl)amino]methyl}-N-(pyridin-3-yl)benzamide] | – | – | Yes | – | – | – | – | excellent safety profiles | – | – | sub-micromolar inhibitory potency levels | – | –
O=C1COc2cc(NCc3cccc(C(=O)Nc4cccnc4)c3)ccc2N1 [Compound 10, 3-{[(3-oxo-3,4-dihydro-2H-1,4-benzoxazin-7-yl)amino]methyl}-N-(pyridin-3-yl)benzamide] | – | – | Yes | – | micromolar levels | – | – | excellent safety profiles | – | – | sub-micromolar inhibitory potency levels | Dual Inhibitors | –
O=C1COc2cc(NCc3cccc(C(=O)Nc4ccccc4O)c3)ccc2N1 [Compound 11, N-(2-hydroxyphenyl)-3-{[(3-oxo-3,4-dihydro-2H-1,4-benzoxazin-7-yl)amino]methyl}benzamide] | – | – | Yes | – | – | – | – | reasonably good safety profiles | – | inhibit various CYP450 isoforms | sub-micromolar inhibitory potency levels | – | –
O=C1COc2cc(NC(=O)c3cc(NC(=O)c4cn[nH]c4)ccc3Cl)ccc2N1 [Compound 12, N-{4-chloro-3-[(3-oxo-3,4-dihydro-2H-1,4-benzoxazin-7-yl)carbamoyl]phenyl}-1H-pyrazole-4-carboxamide] | 18.3 µM | > 50 µM | Yes | > 50 µM | – | > 50 µM | > 50 µM | excellent safety profiles | 22.5 µM | – | sub-micromolar inhibitory potency levels | Dual Inhibitors | 60 nM
O=C1COc2cc(NCc3cccc(C(=O)Nc4cccnc4)c3)c(Cl)cc2N1 [Compound 13, 3-{[(6-chloro-3-oxo-3,4-dihydro-2H-1,4-benzoxazin-7-yl)amino]methyl}-N-(pyridin-3-yl)benzamide] | – | – | Yes | – | – | – | – | reasonably good safety profiles | – | inhibit various CYP450 isoforms | sub-micromolar inhibitory potency levels | Dual Inhibitors | –
